In PubChem BioAssay (NCI):
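Dose response: 5 concentrations. Exposure: 48 h. Format: 96-well plates. Endpoint: linear interpolation; highest concentration if not reached. TGI marks complete inhibition of growth.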

Tests used:
Assay in all cases: DTP human tumour cell line panel, 48 h
[1] = tested on: HCC-2998 colon
[2] = tested on: A498 renal
[3] = tested on: SW-620 colon
[4] = tested on: ACHN renal
[5] = tested on: SK-OV-3 ovarian
[6] = tested on: SNB-19 CNS
[7] = tested on: CAKI-1 renal
[8] = tested on: HL-60(TB) leukemia
[9] = tested on: HCT-116 colon
[10] = tested on: K-562 leukemia
[11] = tested on: A549 NSCLC
[12] = tested on: HS 578T breast
[13] = tested on: NCI-H226 lung
[14] = tested on: SN12C renal
[15] = tested on: SF-295 CNS
[16] = tested on: NCI/ADR-RES ovarian
[17] = tested on: NCI-H460 lung
[18] = tested on: UACC-62 melanoma
[19] = tested on: MDA-MB-435
[20] = tested on: PC-3 prostate
[21] = tested on: T-47D breast
[22] = tested on: EKVX NSCLC
[23] = tested on: LOX IMVI melanoma
[24] = tested on: MDA-N
[25] = tested on: U251 CNS
[26] = tested on: SF-268 CNS
[27] = tested on: OVCAR-5 ovarian
[28] = tested on: NCI-H23 lung
[29] = tested on: OVCAR-8 ovarian
[30] = tested on: MDA-MB-231 breast
[31] = tested on: RPMI-8226 leukemia
[32] = tested on: HCT-15 colon
[33] = tested on: SK-MEL-2 melanoma
[34] = tested on: 786-0 renal
[35] = tested on: OVCAR-3 ovarian
[36] = tested on: NCI-H522 lung
[37] = tested on: CCRF-CEM leukemia
[38] = tested on: BT-549 breast
[39] = tested on: OVCAR-4 ovarian
[40] = tested on: RXF 393 renal
[41] = tested on: IGROV1 ovarian
[42] = tested on: SR leukemia
[43] = tested on: UACC-257 melanoma
[44] = tested on: COLO 205 colon
[45] = tested on: KM12 colon
[46] = tested on: HOP-92 NSCLC
[47] = tested on: MCF7 breast
[48] = tested on: SK-MEL-28 melanoma
[49] = tested on: UO-31 renal
[50] = tested on: HT29 colon
[51] = tested on: SK-MEL-5 melanoma
[52] = tested on: M14 melanoma
[53] = tested on: DU-145 prostate
[54] = tested on: MALME-3M melanoma
[55] = tested on: HOP-62 NSCLC
[56] = tested on: SNB-75 CNS
[57] = tested on: TK-10 renal
[58] = tested on: SF-539 CNS

SMILES: S=C1NCN2CCN(CC2)CNC(=S)C(=S)NCN2CCN(CC2)CNC1=S
- TGI [1]: > 100 µM
- TGI [2]: > 100 µM
- TGI [3]: > 100 µM
- TGI [4]: > 100 µM
- TGI [5]: > 100 µM
- TGI [6]: > 100 µM
- TGI [7]: > 100 µM
- TGI [8]: > 100 µM
- TGI [9]: > 100 µM
- TGI [10]: > 100 µM
- TGI [11]: > 100 µM
- TGI [12]: > 100 µM
- TGI [13]: > 100 µM
- TGI [14]: > 100 µM
- TGI [15]: > 100 µM
- TGI [16]: > 100 µM
- TGI [17]: 46.3 µM
- TGI [18]: > 100 µM
- TGI [19]: > 100 µM
- TGI [20]: > 100 µM
- TGI [21]: > 100 µM
- TGI [22]: > 100 µM
- TGI [23]: 56.4 µM
- TGI [24]: > 100 µM
- TGI [25]: > 100 µM
- TGI [26]: > 100 µM
- TGI [27]: > 100 µM
- TGI [28]: > 100 µM
- TGI [29]: > 100 µM
- TGI [30]: > 100 µM
- TGI [31]: 97.3 µM
- TGI [32]: > 100 µM
- TGI [33]: > 100 µM
- TGI [34]: > 100 µM
- TGI [35]: 98.9 µM
- TGI [36]: > 100 µM
- TGI [37]: 62.3 µM
- TGI [38]: > 100 µM
- TGI [39]: > 100 µM
- TGI [40]: > 100 µM
- TGI [41]: > 100 µM
- TGI [42]: > 100 µM
- TGI [43]: > 100 µM
- TGI [44]: > 100 µM
- TGI [45]: > 100 µM
- TGI [46]: > 100 µM
- TGI [47]: > 100 µM
- TGI [48]: > 100 µM
- TGI [49]: > 100 µM
- TGI [50]: > 100 µM
- TGI [51]: > 100 µM
- TGI [52]: > 100 µM
- TGI [53]: > 100 µM
- TGI [54]: > 100 µM
- TGI [55]: > 100 µM
- TGI [56]: > 100 µM
- TGI [57]: > 100 µM

SMILES: COc1ccc(C=Nc2c(O)ccc3ccccc23)cc1OC
- TGI [1]: > 100 µM
- TGI [2]: > 100 µM
- TGI [3]: > 100 µM
- TGI [4]: > 100 µM
- TGI [5]: > 100 µM
- TGI [6]: > 100 µM
- TGI [7]: > 100 µM
- TGI [8]: > 100 µM
- TGI [9]: > 100 µM
- TGI [10]: > 100 µM
- TGI [11]: > 100 µM
- TGI [12]: > 100 µM
- TGI [13]: > 100 µM
- TGI [14]: > 100 µM
- TGI [15]: > 100 µM
- TGI [16]: > 100 µM
- TGI [17]: > 100 µM
- TGI [18]: > 100 µM
- TGI [19]: 33.4 µM
- TGI [20]: > 100 µM
- TGI [21]: > 100 µM
- TGI [22]: > 100 µM
- TGI [23]: > 100 µM
- TGI [24]: 35.1 µM
- TGI [25]: > 100 µM
- TGI [26]: > 100 µM
- TGI [27]: > 100 µM
- TGI [28]: > 100 µM
- TGI [58]: > 100 µM
- TGI [29]: > 100 µM
- TGI [30]: > 100 µM
- TGI [31]: > 100 µM
- TGI [32]: > 100 µM
- TGI [33]: > 100 µM
- TGI [34]: > 100 µM
- TGI [35]: 70.9 µM
- TGI [36]: 64.2 µM
- TGI [37]: > 100 µM
- TGI [38]: > 100 µM
- TGI [39]: > 100 µM
- TGI [40]: > 100 µM
- TGI [41]: > 100 µM
- TGI [42]: > 100 µM
- TGI [43]: > 100 µM
- TGI [44]: > 100 µM
- TGI [45]: > 100 µM
- TGI [46]: 59 µM
- TGI [47]: > 100 µM
- TGI [48]: > 100 µM
- TGI [49]: > 100 µM
- TGI [50]: > 100 µM
- TGI [51]: > 100 µM
- TGI [52]: > 100 µM
- TGI [53]: > 100 µM
- TGI [54]: 41.2 µM
- TGI [55]: > 100 µM
- TGI [56]: > 100 µM
- TGI [57]: > 100 µM
